Read-outs that look alike come from different tables or passages of the source.
Tests used:
Staphylococcus aureus = test: In vitro lysis of pathogenic bacteria (lytic peptide bioassay, colony count of survivors); format: cell-based; settings: clinical isolate, 37° C. for one hour; for # of Survivors: minus peptide control 50,000; for % of Control: survivors
Description: (§1) In this test, antibiotic resistant clinical isolates of Pseudomonas aeruginosa and Staphylococcus aureus were obtained. The lytic peptide bioassay was performed as described below.
(§2) A flask containing 49 ml of nutrient broth was inoculated with 1 ml of an overnight culture of the test bacteria. The culture was allowed to grow to mid-log phase at 37° C. with shaking (approximately 4 hours). When the cells reached the correct density, the cells were transferred to a sterile tube and centrifuged for 10 minutes at 3000 rpm. The pellet was resuspended in 3 ml of phosphate buffer and centrifuged for 10 minutes at 3000 rpm. The pellet was resuspended once again in sufficient (but measured) volume to calculate the absorbance of the suspension at 600 nm. Using the resulting absorbance and a previously constructed growth curve, the required dilution to achieve a concentration of 10^6 cells/ml was determined.
(§3) The test culture tubes for the bioassay contained 800 μl of phosphate buffer, pH 7.0, 100 μl of cells at 10^6 cells/ml and 100 μl of peptide solution (10 μM to 1 mM). The final concentration of peptide in the assay was from 1 μM to 100 μM. A reaction system minus peptide was included as a control. The tubes were incubated at 37° C. for one hour.
(§4) After the incubation period two 1:10 serial dilutions in phosphate buffer were made for each culture(three 1:10 serial dilutions for the control culture). […] of each dilution was spread on a nutrient agar plate, in duplicate and incubated overnight at 37° C. The following day, the number of colonies on the control plates was counted to determine the starting number of cells in the assay tubes. The number of cells surviving the assay in the presence of peptide was also counted.

Pseudomonas aeruginosa = format: cell-based; settings: clinical isolate, 37° C. for one hour; for # of Survivors: minus peptide control 100,000; for % of Control: survivors
Description: as §1, §2, §3, §4

Ala Val Lys Arg Val Gly Arg Arg Leu Lys Lys Leu Ala Arg Lys Iso Ala Arg Leu Gly Val Ala Phe [SEQ ID NO. 14]
# of Survivors (Staphylococcus aureus; peptide 1 μM): 50,000
# of Survivors (Staphylococcus aureus; peptide 10 μM): 2,299
% of Control (Staphylococcus aureus; peptide 1 μM): 100%
% of Control (Staphylococcus aureus; peptide 10 μM): 4.6%
# of Survivors (Pseudomonas aeruginosa; peptide 1 μM): 100,000
# of Survivors (Pseudomonas aeruginosa; peptide 10 μM): 2
% of Control (Pseudomonas aeruginosa; peptide 1 μM): 100%
% of Control (Pseudomonas aeruginosa; peptide 10 μM): 0.002%

Source: US6559281B1, “Non-naturally occurring synthetic lytic peptides” (priority 1993, dated 2003)
